Reference: PMC10975047, “Antimicrobial Activity of 2-(Piperazin-1-yl)naphtho[2,3-d]thiazole-4,9-dione against Staphylococcus Strains” (Molecules, 2024)

Target: T1, DNA gyrase (Staphylococcus aureus, UniProt P0A0K8+P20831)
T1 construct: gene gyrA; with DNA gyrase subunit B (GyrB)
Test: DNA gyrase supercoiling assay (H19 dye fluorescence, ProFoldin kit)
Assay type: biochemical

T1 sequence (P0A0K8 2-644): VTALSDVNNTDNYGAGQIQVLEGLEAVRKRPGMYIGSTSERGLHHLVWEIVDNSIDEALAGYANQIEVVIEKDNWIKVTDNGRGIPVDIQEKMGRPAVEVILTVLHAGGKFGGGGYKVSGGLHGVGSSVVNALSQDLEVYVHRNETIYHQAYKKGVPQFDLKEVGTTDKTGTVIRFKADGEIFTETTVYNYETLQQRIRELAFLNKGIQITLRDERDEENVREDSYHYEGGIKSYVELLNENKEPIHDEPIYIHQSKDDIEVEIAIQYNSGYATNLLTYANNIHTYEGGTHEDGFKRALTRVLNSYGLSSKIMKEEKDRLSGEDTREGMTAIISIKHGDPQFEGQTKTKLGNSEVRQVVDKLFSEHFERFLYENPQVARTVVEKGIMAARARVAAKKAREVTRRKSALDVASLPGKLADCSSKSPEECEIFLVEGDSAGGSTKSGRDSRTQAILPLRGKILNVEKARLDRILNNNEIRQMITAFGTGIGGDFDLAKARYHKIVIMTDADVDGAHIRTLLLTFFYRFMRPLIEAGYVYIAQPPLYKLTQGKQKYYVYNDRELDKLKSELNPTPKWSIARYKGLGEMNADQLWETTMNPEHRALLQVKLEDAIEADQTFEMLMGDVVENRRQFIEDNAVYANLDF
T1 sequence (P20831 whole entry): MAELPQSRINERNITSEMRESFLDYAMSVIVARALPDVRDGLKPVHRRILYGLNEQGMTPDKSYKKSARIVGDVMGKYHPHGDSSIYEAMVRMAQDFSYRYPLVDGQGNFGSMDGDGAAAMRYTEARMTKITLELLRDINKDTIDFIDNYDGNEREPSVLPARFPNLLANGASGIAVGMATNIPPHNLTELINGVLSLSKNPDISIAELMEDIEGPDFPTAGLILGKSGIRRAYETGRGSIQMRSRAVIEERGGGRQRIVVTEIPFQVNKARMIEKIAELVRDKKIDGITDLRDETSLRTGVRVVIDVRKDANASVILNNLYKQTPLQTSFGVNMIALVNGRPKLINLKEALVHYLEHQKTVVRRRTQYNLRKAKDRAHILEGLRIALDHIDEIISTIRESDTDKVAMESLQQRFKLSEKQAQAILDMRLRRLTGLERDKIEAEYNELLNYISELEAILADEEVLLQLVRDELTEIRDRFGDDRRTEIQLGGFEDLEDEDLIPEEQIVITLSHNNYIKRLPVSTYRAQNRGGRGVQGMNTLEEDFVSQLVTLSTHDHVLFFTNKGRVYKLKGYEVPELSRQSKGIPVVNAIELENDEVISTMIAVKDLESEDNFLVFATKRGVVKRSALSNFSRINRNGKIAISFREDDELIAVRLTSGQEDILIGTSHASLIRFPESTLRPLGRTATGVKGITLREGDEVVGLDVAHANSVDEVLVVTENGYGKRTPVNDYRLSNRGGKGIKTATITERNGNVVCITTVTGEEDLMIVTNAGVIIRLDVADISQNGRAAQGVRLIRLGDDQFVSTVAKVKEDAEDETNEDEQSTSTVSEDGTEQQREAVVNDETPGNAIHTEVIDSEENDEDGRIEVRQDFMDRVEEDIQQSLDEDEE

O=C1c2ccccc2C(=O)c2sc(N3CCNCC3)nc21 [PNT, 2-(piperazin-1-yl)naphtho[2,3-d]thiazole-4,9-dione]
IC50: 372 µM
